In patent US5126134A, “Pharmaceutically active combination” (Ciba-Geigy Corporation, priority 1988, dated 1992):

How the values were obtained:
[1] = test system: coagulation (clotting time, aPTT) of citrated plasma; test: In vitro clot lysis / coagulation in citrated plasma with t-PA; assay type: biochemical, Human; conditions: for concentration leading to the same prolongation of aPTT (equipotent concentration): human citrated plasma
Method: Human blood is directly withdrawn into 3.8% sodium citrate solution (ratio blood/citrate solution 9:1). The mixture is centrifuged at 1,000 rpm for 10 min to yield citrated plasma.
A mixture consisting of 150 μl citrated plasma 125 μl 0.9% sodium chloride solution 100 μl desulfato hirudin HV1 or MCI-9038 (see below) in 0.9% sodium chloride is prepared directly in 1 ml cuvettes equilibrated at 37° C. The mixture is incubated for 15 min at 37° C. Then, 25 μl of a 1 μg/ml t-PA stock solution (American Diagnostica, New York) and 300 μl 0.0025M calcium chloride solution are added to start coagulation.
The change in the optical density (coagulation) is continuously measured at 608 nm in a Uvikon 810 P spectrophotometer equipped with a kinetic program.
The time (in minutes) from addition of the CaCl2 solution to a change in absorbance greater than 0.025 is defined as the coagulation time. The clot lysis time (in minutes) is defined as the time from the beginning of the clotting to the time at which the absorbance decreased to 10% of the maximum absorbance.
The thrombin inhibitor MCI-9038 [(2R,4R)-4-methyl-1-[N^2 -[(3-methyl-1,2,3,4-tetrahydro-8-quinolyl)-sulfonyl]-L-arginyl]-2-piperidinecarboxylic acid] is chemically synthesized as described in S. Okamoto et al., Biochem. Biophys. Res. Commun. 101, 440-446 (1981). It is used at the following end concentrations: 0.07, 0.14, 0.28, 0.56 and 1.1 μM. The desulfato hirudin used has been prepared by recombinant DNA technology using transformed yeast according to the procedure described in European Patent Application No. 225,633. It is used at the following end concentrations: 0.8, 1.6, 3.2, 8 and 16 nM. The concentrations chosen of MCI-9038 and desulfato hirudin are equipotent concentrations in terms of prolongation of clotting time (coagulation), e.g. 1.2 μM MCl-9038 and 16 nM desulfato hirudin lead to the same prolongation of aPTT.

[2] = test system: preformed non-radioactive thrombi in the jugular vein; test: Rabbit jugular vein thrombosis model: inhibition of thrombus accretion during thrombolysis with t-PA; assay type: in vivo, New Zealand white rabbits
Method: The experiments are performed with New Zealand white rabbits (weighing 2.3-3.5 kg) anaesthesized by intravenous (marginal ear vein) injection of 30 mg/kg sodium pentobarbital. Through a paramedical incision of the neck, the jugular veins and the right carotid artery are exposed. The right carotid artery is cannulated with a 1.5 mm diameter polyethylene cannula for blood sampling. The two jugular veins are isolated, cleared over a distance of 2 cm, small side branches are ligated. Each jugular segment is emptied of blood and blood flow is temporarily occluded both proximally and distally by two angiostaths, 1.5 cm apart. A 10 cm length 3.0 TiCron braided polyester suture, presoaked in a collagen solution, is introduced lengthwise in the lumen of the isolated jugular vein for a distance of 4 cm to avoid the embolization of the thrombus to be produced. […] The effects of standard heparin and recombinant desulfato hirudin in preventing thrombus extension during thrombolysis with t-PA are assessed as their ability to inhibit the accretion of ^125 I-fibrinogen onto autologous non-radioactive thrombi preformed in the jugular vein of rabbits. […] The ratio of the radioactivity of the thrombus to the circulating fibrinogen radioactivity is used to quantify thrombus size, which is then expressed as μg or ^125 I-fibrinogen accreted onto the thrombus.

[3] = test system: activated partial thromboplastin time; test: aPTT prolongation in control experiments (rabbit model); assay type: in vivo, New Zealand white rabbits; conditions: heparin 0.75 mg/kg, hirudin 1 mg/kg
Method: Intravenous infusions are carried out by using a constant rate infusion pump. t-PA derived from melanoma cell cultures is obtained from BioResponse, USA. A total dose of 0.5 mg t-PA is infused through the marginal ear vein over a period of 3 hours. Along with t-PA either saline, standard heparin (KabiVitrum, Sweden, 140 USP/mg; 0.75 mg/kg) or hirudin (1 mg/kg) are infused. Doses of heparin and hirudin are used which give in control experiments the same prolongation in aPTT (activated partial thromboplastin time), e.g. times two.

Compound	concentration leading to the same prolongation of aPTT (equipotent concentration) ([1]; equipotent with 16 nM desulfato hirudin) [µM]	concentration needed to achieve the same effect as a given concentration of desulfato hirudin ([1]; relative to desulfato hirudin, in vitro clot lysis)	effect on thrombus accretion during t-PA thrombolysis ([2]; FIG. 1, infused along with t-PA, heparin 0.75 mg/kg, desulfato hirudin 1 mg/kg)	effect on thrombus accretion with increasing concentrations ([2]; FIG. 2, t-PA with various concentrations of desulfato hirudin)	concentration leading to the same prolongation of aPTT (equipotent concentration) ([1]; equipotent with 1.2 μM MCI-9038) [µM]	prolongation in aPTT [3]
CC1CNc2c(cccc2S(=O)(=O)N[C@@H](CCCNC(=N)N)C(=O)N2CC[C@@H](C)C[C@@H]2C(=O)O)C1 (stereo partly drawn) [MCI-9038, (2R,4R)-4-methyl-1-[N^2-[(3-methyl-1,2,3,4-tetrahydro-8-quinolyl)-sulfonyl]-L-arginyl]-2-piperidinecarboxylic acid]	1.2	twenty-fold				
desulfato hirudin HV1			clear reduction in thrombus accretion	this effect can even be potentiated	0.016	times two
